US12514843B2, “Biofilm disruption” (QBIOTICS PTY LTD, priority 2019, dated 2026)
Values after ≈ are worked out from the molar mass of the structure shown.

Assays:
[1] = system: A. baumannii 7789 biofilm; assay: Disruption of established in vitro biofilm, CLSM with COMSTAT image analysis; format: cell-based, Acinetobacter baumannii; conditions: 256 μg/mL; for DEAD/LIVE bacterial ratio: vs untreated and ethanol blank controls; for biofilm bio-volume (COMSTAT): vs untreated and ethanol blank controls (p<0.05)
Protocol: (§1) Biofilms of E. coli IR57 were grown on 96-well glass-bottomed plates in Mueller-Hinton (MH) broth for 24 h, before 50% of the supernatant was replaced with fresh MH broth with or without the epoxytiglienone compound added to a final concentration of 256 μg/mL (vehicle is ethanol). An ethanol equivalent blank was used as a further control treatment. The plates were then incubated for a further 24 h at 37° C.
(§2) Confocal laser scanning microscopy (CLSM) was then used to image the biofilms, following staining with Live/Dead® Baclight stain with phosphate buffered saline (PBS) added to each well before imaging with z-stack CLSM. The resultant images were analysed by COMSTAT software to produce measurements of (i) biofilm biomass volume or bio-volume (μm^3/μm^2) and (ii) DEAD/LIVE bacterial ratio.
(§3) The effects of the epoxytiglienones (Compounds 1, 4, 6 and the comparator compound CC-1) on disruption of established in vitro biofilms were further investigated with two other species of Gram-negative bacteria (Pseudomonas aeruginosa PA01 and Acinetobacter baumannii 7789) using methods described in Example 2 above. Cell permeabilisation following Compound 1, 4 and 6 treatment was also determined using SYTOX™ Green Nucleic Acid Stain with untreated control and positive control of 70% isopropanol.

[2] = system: P. aeruginosa PAO1 biofilm; assay: as above; format: cell-based, Pseudomonas aeruginosa; conditions: 256 μg/mL, vs untreated and ethanol blank controls
Protocol: as §1, §2, §3

[3] = system: Acinetobacter baumannii 7789 (V19); assay: Minimum inhibitory concentration (MIC) assay, planktonic culture, broth dilution; format: cell-based; parameters: key: C = confluent growth, i.e. no MIC could be determined at any concentration tested; conditions: A. baumannii, planktonic culture in Mueller-Hinton broth; mean of three replicate tests
Protocol: (§4) The effects of five epoxytiglienones (Compounds 1, 2, 3, 4 and 6) and two comparator comparator compounds (epoxytiglienones having longer carbon chains at the C12 position) on six human pathogenic bacteria (two Gram-positive and four Gram-negative species) were measured in conventional planktonic culture systems. A minimum inhibitory concentrations (MIC) assay (the standard assay employed to define and quantify antibiotic activity) was performed to determine antibacterial activity for each epoxytiglienone against each bacterial strain.
(§5) The Gram-positive bacteria used in this study were methicillin resistant Staphylococcus aureus (MRSA) 1004A and Streptococcus pyogenes. The Gram-negative bacteria used in this study were Pseudomonas aeruginosa PAO1, Escherichia coli IR57 (V7), Klebsiella pneumoniae, and Acinetobacter baumannii 7789 (V19). MIC assays were performed on planktonic cultures of each bacteria grown in Mueller-Hinton broth using the standard broth dilution method described by Jorgensen et al. (1999) using epoxytiglienones dissolved in ethanol.

[4] = system: methicillin resistant Staphylococcus aureus (MRSA) 1004A; assay: as above; format: cell-based; parameters: key: C = confluent growth, i.e. no MIC could be determined at any concentration tested; conditions: S. aureus, planktonic culture in Mueller-Hinton broth; mean of three replicate tests
Protocol: as §4, §5

[5] = system: Escherichia coli IR57 (V7); assay: as above; format: cell-based; parameters: key: C = confluent growth, i.e. no MIC could be determined at any concentration tested; conditions: E. coli, planktonic culture in Mueller-Hinton broth; mean of three replicate tests
Protocol: as §4, §5

Streptococcus pyogenes = assay: as above; format: cell-based; parameters: key: C = confluent growth, i.e. no MIC could be determined at any concentration tested; conditions: S. pyogenes, planktonic culture in Mueller-Hinton broth; mean of three replicate tests
Protocol: as §4, §5

[6] = system: Pseudomonas aeruginosa PAO1; assay: as above; format: cell-based; parameters: key: C = confluent growth, i.e. no MIC could be determined at any concentration tested; conditions: P. aeruginosa, planktonic culture in Mueller-Hinton broth; mean of three replicate tests
Protocol: as §4, §5

Klebsiella pneumoniae = assay: as above; format: cell-based; parameters: key: C = confluent growth, i.e. no MIC could be determined at any concentration tested; conditions: K. pneumoniae, planktonic culture in Mueller-Hinton broth; mean of three replicate tests
Protocol: as §4, §5

E. coli IR57 biofilm [7] = assay: Disruption of established in vitro biofilm, CLSM with COMSTAT image analysis; format: cell-based, Escherichia coli; conditions: E. coli IR57 24 h biofilm, 256 μg/mL, further 24 h; vs untreated and ethanol blank controls
Protocol: The effects of administration of Compounds 1, 4 and 6 and comparator compound CC-1 on disruption of established in vitro biofilms of Escherichia coli (E. coli) was investigated using methods described in Powell et al. (2018).
as §1, §2

E. coli IR57 biofilm [8] = assay: Multiple particle tracking (MPT) of 200 nm FluoSpheres in established biofilm; format: cell-based, Escherichia coli; conditions: for Diffusion coefficient (Deff) ± standard deviation: 200 nm negatively-charged carboxylate-modified FluoSpheres in E. coli IR57 biofilms, 256 μg/mL, 24 h treatment; for mean squared displacement (MSD) of FluoSphere particles / biofilm creep compliance: E. coli IR57 biofilm, vs untreated and ethanol blank controls; for mean squared displacement (MSD) of FluoSphere particles: 200 nm FluoSpheres; for biofilm creep compliance: derived from MSD vs lag time
Protocol: The effect of three epoxytiglienones (Compounds 1, 4 and 6) on the assembly and permeability of established biofilms of E. coli was assessed using multiple particle tracking (MPT). MPT is a recently described technique, allowing simultaneous tracking of micron-size particles through biofilms using microscopy, from which the diffusion-based parameters of embedded particles within the extracellular polymeric matrix (EPS) of the biofilm can be determined (Cao et al. 2016). MPT measurements also allows for calculation of micro-rheological properties of the biofilm structure following treatment with test compounds.
E. coli biofilms were established and epoxytiglienone and control treatments applied as described in Example 2 above. Twenty-four hours after application of the treatments, the biofilms were stained with SYTO9® and 0.0025% of negatively-charged, carboxylate-modified FluoSpheres® (200 nm) added onto the biofilms and incubated for a further 2 hours. FluoSphere® particle movements within the biofilms were then captured on video using epifluorescence microscopy with a high frame-rate camera (33 ms). Particle trajectories were tracked using ImageJ softwaren (Mosaic) before calculation of three parameters of the 200 nm FluoSphere® particles: (i) ensemble diffusion coefficient (Deff), (ii) ensemble mean squared displacement (MSD) and (iii) creep compliance (a measure of resistance to mechanical deformation derived from the MSD vs lag time). Each treatment was replicated three times.

With `CCCCCC=CC=CC(=O)OC1C(C)C2(O)C(C3OC3(CO)C(O)C3(O)C(=O)C(C)=CC32)C2C(C)(C)C12OC(=O)C(C)CC` (centres unmarked) [CC-1, 12-(2,4-decadienoyl)-13-(2-methylbutanoyl)-6,7-epoxy-4,5,9,12,13,20-hexahydroxy-1-tiglien-3-one, reference compound] the DEAD/LIVE bacterial ratio [1] was “no significant differences”, the “biofilm bio-volume (COMSTAT)” value [1] was “significant reductions” and the DEAD/LIVE bacterial ratio [2] was “no significant differences”. The Minimum inhibitory concentrations [3] was “C”, the Minimum inhibitory concentrations [4] was 8 µg/mL (≈ 12.7 µM) and the Minimum inhibitory concentrations [5] was “C”. The Minimum inhibitory concentrations (Streptococcus pyogenes) was 8 µg/mL (≈ 12.7 µM), the Minimum inhibitory concentrations [6] was “C” and the Minimum inhibitory concentrations (Klebsiella pneumoniae) was “C”. The “biofilm bio-volume (COMSTAT)” value (E. coli IR57 biofilm [7]) was “no apparent effect” and the “distribution and density of bacteria in the biofilm (CLSM)” value (shortened to “distribution and density of bacteria”) (E. coli IR57 biofilm [7]) was “no apparent effect”.

In the case of `CCCCCC=CC=CC(=O)O[C@@H]1C(C)[C@]2(O)C(C3OC3(CO)[C@H](O)[C@@]3(O)C(=O)C(C)=CC23)C2C(C)(C)[C@]21OC(=O)C(C)CC` (stereo partly drawn) [CC-2, 12R-(2,4-decadienoyl)-13R-(2-methylbutanoyl)-6,7-epoxy-4R,5R,9S,12R,13R,20-hexahydroxy-1-tiglien-3-one, reference compound], the Minimum inhibitory concentrations [3] is reported as “C”, the Minimum inhibitory concentrations [4] is reported as 16 µg/mL (≈ 25.4 µM) and the Minimum inhibitory concentrations [5] is reported as “C”. For the same compound, the Minimum inhibitory concentrations (Streptococcus pyogenes) was 8 µg/mL (≈ 12.7 µM), the Minimum inhibitory concentrations [6] was “C” and the Minimum inhibitory concentrations (Klebsiella pneumoniae) was “C”.

In the case of `C/C=C(\C)C(=O)O[C@@H]1[C@@H](C)[C@@]2(O)[C@H]([C@@H]3C(C)(C)[C@]13OC(=O)[C@@H](C)CC)[C@@H]1O[C@]1(CO)[C@@H](O)[C@]1(O)C(=O)C(C)=C[C@H]12` [Compound 1, 12-tigloyl-13-(2-methylbutanoyl)-6,7-epoxy-4,5,9,12,13,20-hexahydroxy-1-tiglien-3-one], the DEAD/LIVE bacterial ratio [1] is reported as “no significant differences”, the “biofilm bio-volume (COMSTAT)” value [1] is reported as “significant reductions” and the DEAD/LIVE bacterial ratio [2] is reported as “no significant differences”. For the same compound, the Minimum inhibitory concentrations [3] was “C”, the Minimum inhibitory concentrations [4] was 256 µg/mL (≈ 455 µM) and the Minimum inhibitory concentrations [5] was “C”. The Minimum inhibitory concentrations (Streptococcus pyogenes) was 128 µg/mL (≈ 227 µM), the Minimum inhibitory concentrations [6] was “C” and the Minimum inhibitory concentrations (Klebsiella pneumoniae) was “C”. For the same compound, the “biofilm bio-volume (COMSTAT)” value (E. coli IR57 biofilm [7]) was “Significant decreases”, the “distribution and density of bacteria” value (E. coli IR57 biofilm [7]) was “significant changes” and the “Diffusion coefficient (Deff) ± standard deviation” value (E. coli IR57 biofilm [8]) was 0.6018 ± 0.0901 cm^2 · s^−1 × 10^−9. For the same compound, the “mean squared displacement (MSD) of FluoSphere particles” value (E. coli IR57 biofilm [8]) was “substantially higher” and the biofilm creep compliance (E. coli IR57 biofilm [8]) was “increased”.

In the case of `CCC(C)C(=O)OC1C(C)C2(O)C(C3OC3(CO)C(O)C3(O)C(=O)C(C)=CC32)C2C(C)(C)C12OC(=O)C(C)CC` (centres unmarked) [Compound 2, 12,13-di-(2-methylbutanoyl)-6,7-epoxy-4,5,9,12,13,20-hexahydroxy-1-tiglien-3-one], the Minimum inhibitory concentrations [3] is reported as “C”, the Minimum inhibitory concentrations [4] is reported as 256 µg/mL (≈ 453 µM) and the Minimum inhibitory concentrations [5] is reported as “C”. The Minimum inhibitory concentrations (Streptococcus pyogenes) was 128 µg/mL (≈ 227 µM), the Minimum inhibitory concentrations [6] was “C” and the Minimum inhibitory concentrations (Klebsiella pneumoniae) was “C”.

With `CCCCCC(=O)OC1C(C)C2(O)C(C3OC3(CO)C(O)C3(O)C(=O)C(C)=CC32)C2C(C)(C)C12OC(=O)C(C)CC` (centres unmarked) [Compound 3, 12-hexanoyl-13-(2-methylbutanoyl)-6,7-epoxy-4,5,9,12,13,20-hexahydroxy-1-tiglien-3-one] the Minimum inhibitory concentrations [3] was “C”, the Minimum inhibitory concentrations [4] was 256 µg/mL (≈ 442 µM) and the Minimum inhibitory concentrations [5] was “C”. For the same compound, the Minimum inhibitory concentrations (Streptococcus pyogenes) was 128 µg/mL (≈ 221 µM), the Minimum inhibitory concentrations [6] was “C” and the Minimum inhibitory concentrations (Klebsiella pneumoniae) was “C”.

For `CCC(=O)OC1C(C)C2(O)C(C3OC3(CO)C(O)C3(O)C(=O)C(C)=CC32)C2C(C)(C)C12OC(=O)C(C)CC` (centres unmarked) [Compound 6, 12-propanoyl-13-(2-methylbutanoyl)-6,7-epoxy-4,5,9,12,13,20-hexahydroxy-1-tiglien-3-one], the DEAD/LIVE bacterial ratio [1] was “no significant differences”, the DEAD/LIVE bacterial ratio [2] was “no significant differences” and the Minimum inhibitory concentrations [3] was “C”. The Minimum inhibitory concentrations [4] was “C”, the Minimum inhibitory concentrations [5] was “C” and the Minimum inhibitory concentrations (Streptococcus pyogenes) was “C”. The Minimum inhibitory concentrations [6] was “C”, the Minimum inhibitory concentrations (Klebsiella pneumoniae) was “C” and the “biofilm bio-volume (COMSTAT)” value (E. coli IR57 biofilm [7]) was “Decreases in bio-volume were evident”. For the same compound, the “distribution and density of bacteria” value (E. coli IR57 biofilm [7]) was “significant changes”, the “Diffusion coefficient (Deff) ± standard deviation” value (E. coli IR57 biofilm [8]) was 0.1607 ± 0.0104 cm^2 · s^−1 × 10^−9 and the “mean squared displacement (MSD) of FluoSphere particles” value (E. coli IR57 biofilm [8]) was “substantially higher”. For the same compound, the biofilm creep compliance (E. coli IR57 biofilm [8]) was “increased”.
